Measured values reported in ChEMBL document CHEMBL1201862, “PubChem BioAssay data set” (2004).
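Briefly, cells in 96-well plates were exposed to five compound concentrations for 48 h, and endpoints were estimated by linear interpolation. At the GI50, growth is halved.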 The source made the active and inactive calls. Cut-off read from the data, not from the text of the source: active = GI50 up to about 1.1 µM and inactive = higher. Square brackets hold non-standard residues; d marks the D form. Peptide text beside a SMILES is read from it. * marks the point of attachment. Bn2Val = CC(C)[C@@H](C(=O)*)N(Cc1ccccc1)Cc1ccccc1; NH(3,4-diMeO-benzyl) = COc1ccc(CN*)cc1OC; NMeV = CN[C@H](C(=O)O)C(C)C; dNMeA = CN[C@H](C)C(=O)O

Experiments:
Test in all cases: NCI anticancer screen, dose series, 48 h
HT-29 = test system: HT-29
UACC-257 = test system: UACC-257
U-251 = test system: U-251
CAKI-1 = test system: CAKI-1
SNB-75 = test system: SNB-75
HCT-15 = test system: HCT-15
A549 = test system: A549
SNB-19 = test system: SNB-19
ACHN = test system: ACHN
OVCAR-3 = test system: OVCAR-3
MOLT-4 = test system: MOLT-4
786-0 = test system: 786-0
SF-295 = test system: SF-295
UACC-62 = test system: UACC-62
OVCAR-5 = test system: OVCAR-5
TK-10 = test system: TK-10
KM12 = test system: KM12
NCI/ADR-RES = test system: NCI/ADR-RES
SK-MEL-5 = test system: SK-MEL-5

Compound	GI50 (HT-29)	GI50 (UACC-257)	GI50 (U-251)	GI50 (CAKI-1)	GI50 (SNB-75)	GI50 (HCT-15) [µM]	GI50 (A549)	GI50 (SNB-19)	GI50 (ACHN)	GI50 (OVCAR-3)	GI50 (MOLT-4)	GI50 (786-0)	GI50 (SF-295)	GI50 (UACC-62)	GI50 (OVCAR-5)	GI50 (TK-10)	GI50 (KM12)	GI50 (NCI/ADR-RES)	GI50 (SK-MEL-5)
COc1ccc(CNC(=O)[C@@H](C)N(C)C(=O)[C@@H]2CCCN2C(=O)[C@H](C(C)C)N(C)C(=O)[C@@H](NC(=O)[C@H](C(C)C)N(Cc2ccccc2)Cc2ccccc2)C(C)C)cc1OC (Bn2Val-V[NMeV]P[dNMeA]-{NH(3,4-diMeO-benzyl)})	5.4 µM (inactive)	7.43 µM (inactive)	7.6 µM (inactive)	11.4 µM (inactive)	6.43 µM (inactive)	7.18	5.85 µM (inactive)	7.48 µM (inactive)	6.97 µM (inactive)	5.9 µM (inactive)	4.05 µM (inactive)	8.97 µM (inactive)	6.28 µM (inactive)	7.01 µM (inactive)	8.2 µM (inactive)	11.7 µM (inactive)	10.4 µM (inactive)	7.19 µM (inactive)	5.87 µM (inactive)
CC1(C)COC2=C(C1)C(=O)c1ccccc1C2=O	2.53 µM (inactive)	0.828 µM (active)	1.43 µM (inactive)	2.23 µM (inactive)	1.63 µM (inactive)	0.701	2.26 µM (inactive)	1.97 µM (inactive)	1.55 µM (inactive)	0.75 µM (active)	1.5 µM (inactive)	1.84 µM (inactive)	1.63 µM (inactive)	1.09 µM (active)	1.69 µM (inactive)	1.7 µM (inactive)	1.76 µM (inactive)	0.452 µM (active)	0.71 µM (active)
C=C(C)[C@@]1(O[Si](C)(C)C)CCCC[C@@H]1CC(Sc1ccccc1)Sc1ccccc1	19.7 µM (inactive)	15.3 µM (inactive)	16 µM (inactive)	12.9 µM (inactive)	12.1 µM (inactive)	12.3	10.1 µM (inactive)	16.4 µM (inactive)	15.4 µM (inactive)	14.1 µM (inactive)	4.89 µM (inactive)	14.6 µM (inactive)	12.4 µM (inactive)	13.2 µM (inactive)	16.2 µM (inactive)	15.4 µM (inactive)	10.6 µM (inactive)	13.8 µM (inactive)	16.3 µM (inactive)
C[n+]1c2ccccc2c2/c(=C\C#N)c3ccccc3n21	3.82 µM (inactive)	3.06 µM (inactive)	2.73 µM (inactive)	23.8 µM (inactive)	3.23 µM (inactive)	28.4	6.92 µM (inactive)	5.24 µM (inactive)	4.91 µM (inactive)	3.44 µM (inactive)	3.54 µM (inactive)	3.5 µM (inactive)	5.82 µM (inactive)	10.7 µM (inactive)	5.78 µM (inactive)	1.69 µM (inactive)	3.61 µM (inactive)	32 µM (inactive)	6.53 µM (inactive)
CC(=O)OCC1OC(n2c3c(c(-c4ccco4)c(C#N)c2=S)CCCC3)C(OC(C)=O)C(OC(C)=O)C1OC(C)=O (stereo not given)	> 31.6 µM (inactive)	> 31.6 µM (inactive)	> 10 µM (inactive)	29.7 µM (inactive)	8.2 µM (inactive)	> 31.6	30 µM (inactive)	15.6 µM (inactive)	17.8 µM (inactive)	23.2 µM (inactive)	> 31.6 µM (inactive)	25.1 µM (inactive)	13.7 µM (inactive)	> 10 µM (inactive)	> 31.6 µM (inactive)	15.7 µM (inactive)	> 31.6 µM (inactive)	17.1 µM (inactive)	16.3 µM (inactive)
CC(=O)O[C@H]1C(=O)[C@@]2(C)[C@H]([C@H](OC(=O)c3ccc(F)cc3)[C@]3(O)C[C@H](OC(=O)[C@H](O)[C@@H](NC(=O)c4ccccc4)c4ccccc4)C(C)=C1C3(C)C)[C@]1(OC(C)=O)CO[C@@H]1C[C@@H]2O	0.00678 µM (active)	0.0399 µM (active)	0.00857 µM (active)	3.82 µM (inactive)	0.0189 µM (active)	1.47	0.082 µM (active)	0.0306 µM (active)	0.802 µM (active)	0.00557 µM (active)	0.0146 µM (active)	0.084 µM (active)	0.168 µM (active)	0.0199 µM (active)	0.0222 µM (active)	0.416 µM (active)	0.0113 µM (active)	9.84 µM (inactive)	0.023 µM (active)
COc1cc(Nc2nc3ccccc3nc2C(C)C)cc(OC)c1OC	36.4 µM (inactive)	> 100 µM (inactive)	> 100 µM (inactive)	> 100 µM (inactive)	> 100 µM (inactive)	90.4	> 100 µM (inactive)	> 100 µM (inactive)	> 100 µM (inactive)	> 100 µM (inactive)	> 100 µM (inactive)	> 100 µM (inactive)	82.8 µM (inactive)	> 100 µM (inactive)	> 100 µM (inactive)	> 100 µM (inactive)	> 100 µM (inactive)	68.4 µM (inactive)	> 100 µM (inactive)
CCCCCCCCCCCCOCC1(COCCCCCCCCCCCC)COC(c2ccc(N)cc2)OC1	> 100 µM (inactive)	> 100 µM (inactive)	> 100 µM (inactive)	> 100 µM (inactive)	> 100 µM (inactive)	> 100	> 100 µM (inactive)	> 100 µM (inactive)	> 100 µM (inactive)	> 100 µM (inactive)	> 100 µM (inactive)	> 100 µM (inactive)	> 100 µM (inactive)	> 100 µM (inactive)	> 100 µM (inactive)	> 100 µM (inactive)	> 100 µM (inactive)	> 100 µM (inactive)	> 100 µM (inactive)
COc1ccccc1C1(c2c(OC(C)C)c(=O)c2=O)SCCCS1	> 100 µM (inactive)	> 100 µM (inactive)	> 100 µM (inactive)	> 100 µM (inactive)	90.4 µM (inactive)	> 100	> 100 µM (inactive)	> 100 µM (inactive)	> 100 µM (inactive)	> 100 µM (inactive)	> 100 µM (inactive)	> 100 µM (inactive)	> 100 µM (inactive)	> 100 µM (inactive)	> 100 µM (inactive)	> 100 µM (inactive)	> 100 µM (inactive)	> 100 µM (inactive)	> 100 µM (inactive)
COC(=O)c1ccc(Nc2nc3[nH]cnc3c(=O)[nH]2)cc1	58.7 µM (inactive)	> 100 µM (inactive)	> 100 µM (inactive)	> 100 µM (inactive)	> 100 µM (inactive)	> 100	> 100 µM (inactive)	> 100 µM (inactive)	> 100 µM (inactive)	54.6 µM (inactive)	87.1 µM (inactive)	> 100 µM (inactive)	> 100 µM (inactive)	> 100 µM (inactive)	> 100 µM (inactive)	> 100 µM (inactive)	> 100 µM (inactive)	> 100 µM (inactive)	> 100 µM (inactive)
